We go through six molecules from the supplement of paper PMC11061612.

Test in all cases: Bliss excess, mean over the matrix (fraction); higher = more synergy
The subject of test [1] is GAMG (Glioblastoma). The method, boiled down:
(§1)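 After 24 hours at 37°C and 5% CO2 in 1536-well plates, cells in DMEM/F12 or RPMI plus 10% FBS received two-drug dose matrices for 72 hours. Viability came from CellTiter-Glo 2.0 luminescence and was scaled as inhibition, anchored at 0 by vehicle wells and at 1 by blank wells. Combination Emax is taken as the second-highest inhibition in the matrix, and Bliss excess as the observed combination effect less EA + EB − EA·EB, with EA and EB the single-agent effects.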

Test [2] relates to KMRC-20 (Kidney Carcinoma). The method, boiled down:
as §1

The test system of test [3] is FTC-133 (Thyroid Gland Carcinoma). The method, boiled down: as §1
Test [4] has as its system LNZTA3WT4 (Low Grade Glioma). The method, boiled down:
as §1

In test [5] the test system is HeLa (Cervical Carcinoma). The method, boiled down: as §1
Test [6] concerns SAS (Oral Cavity Carcinoma). The method, boiled down:
as §1

Test [7] concerns NCI-H209 (Small Cell Lung Carcinoma). The method, boiled down:
as §1

Test [8] concerns SNU-16 (Gastric Carcinoma). The method, boiled down:
as §1

Test [9] deals with NUGC-4 (Gastric Carcinoma). The method, boiled down:
as §1

Test [10] relates to SNU-449 (Hepatocellular Carcinoma). The method, boiled down:
as §1

Test [11] relates to BE-13 (T-Lymphoblastic Leukemia). The method, boiled down:
as §1

The subject of test [12] is BFTC-909 (Kidney Carcinoma). The method, boiled down: as §1
For test [13], the system named is HH (T-Cell Non-Hodgkin's Lymphoma). The method, boiled down: as §1
Test [14] has as its system SW1573 (Lung Adenocarcinoma). The method, boiled down: as §1
Test [15] concerns L-428 (Hodgkin's Lymphoma). The method, boiled down:
as §1

Test [16] concerns OV-56 (Ovarian Carcinoma). The method, boiled down: as §1
The test system of test [17] is LOXIMVI (Melanoma). The method, boiled down: as §1
The subject of test [18] is MPP-89 (Mesothelioma). The method, boiled down:
as §1

For test [19], the system named is SW1710 (Bladder Carcinoma). The method, boiled down:
as §1

In test [20] the test system is HuCCT1 (Biliary Tract Carcinoma). The method, boiled down: as §1

Structures are written as SMILES.

As for `Cc1c2c(nn1C)CSCc1cc(n(C)n1)CSc1cc(c3ccccc3c1)OCCCc1c(C(=O)O)n(C)c3c-2c(Cl)ccc13` [AZD5991] + C=CCn1c(=O)c2cnc(Nc3ccc(N4CCN(C)CC4)cc3)nc2n1-c1cccc(C(C)(C)O)n1 [AZD1775] (first compound max 1 µM, partner max 1 µM), the Bliss excess in test [1] is -0.0528; in test [2], -0.0011; in test [3] it was 0.0172; in test [4] it was -0.0292; in [5], -0.0224; in test [6] it was -0.0144. The Bliss excess in [7] was 0.0103; in test [8] it was 0.0049; in [9], -0.0128; in test [10] it was 0.0317; in [11], -0.0097; in test [12] it was 0.0639. In addition, the Bliss excess was -0.0046 in test [13]; -0.0337 in test [14]; 0.0145 in [15]; 0.0126 in test [16]; -0.029 in [17]; -0.0732 in [18]. Also, the results for the Bliss excess in [19] and in [20] were -0.0257 and 0.0676, respectively.

Turning to `NC1(C(=O)N[C@@H](CCO)c2ccc(Cl)cc2)CCN(c2ncnc3[nH]ccc23)CC1` [Capivasertib] + Cn1cnc2c(F)c(Nc3ccc(Br)cc3Cl)c(C(=O)NOCCO)cc21 [Selumetinib] (first compound max 10 µM, 7x7, partner max 10 µM), the Bliss excess in test [1] was 0.0408; in test [2] it was -0.133; in test [3] it was 0.0156; in [4], -0.0292; in [5], 0.0032; in [6] it was 0.0089. Moreover, the Bliss excess was -0.0108 in [7]; 0.0151 in test [8]; 0.0363 in [9]; -0.0113 in [10]; 0.0265 in test [11]; 0.0531 in test [12]. The Bliss excess in test [13] is -0.0626; in [14] it was -0.0111; in [15], -0.0127; in [16], 0.01; in [17] it was 0.107; in test [18], -0.0188. Further, the Bliss excess came to 0.0396 in test [19] and 0.01 in test [20].

Consider `Cc1c2c(nn1C)CSCc1cc(n(C)n1)CSc1cc(c3ccccc3c1)OCCCc1c(C(=O)O)n(C)c3c-2c(Cl)ccc13` [AZD5991] + C1CN(CCC1(C(=O)N[C@@H](CCO)C2=CC=C(C=C2)Cl)N)C3=NC=NC4=C3C=CN4 [Capivasertib] (first compound max 1 µM, 7x7, partner max 3 µM), for which the Bliss excess in test [1] was -0.0239; in test [2] it was -0.0163; in test [3], 0.0062; in [4], 0.0495; in [5] it was 0.0059; in test [6] it was -0.0165. Further, the Bliss excess was 0.0273 in test [7]; -0.0001 in test [8]; -0.0228 in [9]; -0.0238 in [10]; 0.0349 in test [11]; 0.0265 in test [12]. The Bliss excess in [13] was 0.0176; in [14], -0.0587; in test [15], -0.0007; in test [16], -0.0006; in [17], -0.0067; in test [18] it was 0.0003. The Bliss excess in [19] was -0.0407; in test [20] it was -0.0405.

Regarding `COc1nnc2ccc(N3CCC(c4ccc(OCCN5CCN(C)C(=O)[C@H]5C)cc4)CC3)nn12` [AZD5153] + Cn1cnc2c(F)c(Nc3ccc(Br)cc3Cl)c(C(=O)NOCCO)cc21 [Selumetinib] (first compound max 1 µM, 7x7, partner max 10 µM), the Bliss excess in test [1] is -0.0192; in [2], -0.08; in test [3] it was -0.0539; in test [4], -0.143; in test [5], -0.0409; in [6], 0.0163. In addition, the Bliss excess in test [7] is -0.0214; in test [8], -0.0058; in test [9] it was 0.0186; in [10] it was -0.014; in test [11], -0.0209; in test [12] it was -0.0399. Further, the Bliss excess in [13] was -0.0817; in test [14] it was -0.0062; in test [15], -0.0409; in test [16] it was -0.0232; in test [17], -0.0679; in test [18], 0.0192. Also, the Bliss excess in [19] was -0.0433; in test [20] it was 0.0453.

Turning to `CN(C)CCCOc1ccc(-c2ccc3ncc4c(c3c2)n(C2CCOCC2)c(=O)n4C)cn1` [AZD0156] + C=CCn1c(=O)c2cnc(Nc3ccc(N4CCN(C)CC4)cc3)nc2n1-c1cccc(C(C)(C)O)n1 [AZD1775] (first compound max 1 µM, partner max 1 µM), the Bliss excess was -0.0429 in test [1]; -0.0707 in test [2]; -0.0416 in [3]; -0.0561 in [4]; -0.0364 in test [5]; -0.0742 in test [6]. Also, the Bliss excess in [7] is -0.0624; in test [8], -0.0158; in test [9] it was -0.055; in test [10] it was -0.0635; in test [11] it was -0.0329; in test [12], -0.0638. For the same molecule, the Bliss excess is -0.0689 in [13]; -0.0423 in test [14]; 0.0106 in test [15]; -0.0459 in test [16]; 0.0604 in test [17]; -0.0513 in test [18]. Further, the Bliss excess in test [19] was -0.0205; in test [20], -0.0382.

Consider `COc1nnc2ccc(N3CCC(c4ccc(OCCN5CCN(C)C(=O)[C@H]5C)cc4)CC3)nn12` [AZD5153] + CCN(CCO)CCCOc1ccc2c(Nc3cc(CC(=O)Nc4cccc(F)c4)[nH]n3)ncnc2c1 [AZD2811] (first compound max 1 µM, 7x7, partner max 1 µM), for which the Bliss excess in test [1] was 0.0004; in [2], -0.148; in test [3], -0.0014; in test [4] it was -0.0415; in test [5], -0.0457; in [6] it was -0.0499. The Bliss excess in test [7] is -0.0145; in [8], 0.0728; in test [9], -0.0508; in [10] it was -0.0179; in [11], -0.0637; in test [12], 0.0272. For the same molecule, the Bliss excess in test [13] is 0.0055; in test [14], -0.0609; in [15], 0.0085; in test [16] it was -0.0288; in test [17], -0.0129; in test [18] it was -0.0396. Besides, the Bliss excess in test [19] is -0.052; in test [20] it was -0.0331.
